The test system of one data set is Plasma. The data set can be described thus: Drug recovery in New Zealand Oryctolagus cuniculus (rabbit) plasma at 1.56 to 400 ng/ml. It is filed as ADME, cell-free.
A short description of data set [1]: Volume of distribution in New Zealand Oryctolagus cuniculus (rabbit) at 2 mg/kg, iv. It is filed as ADME, organism-based. Also noted: dose 2 mg/kg, route intravenous. As to conditions: in vivo.
Data set [2] in a line: Half life in New Zealand Oryctolagus cuniculus (rabbit) at 2 mg/kg, iv. The data set is classed as ADME, organism-based. Also noted: dose 2 mg/kg, route intravenous. The note with it: in vivo.
The nature of data set [3]: AUC (0 to infinity) in New Zealand Oryctolagus cuniculus (rabbit) at 2 mg/kg, iv. The data set is classed as ADME, organism-based. More on the design: time infinity, dose 2 mg/kg, route intravenous. The note with it: plasma.
Data set [4] in a line: Clearance in New Zealand Oryctolagus cuniculus (rabbit) at 2 mg/kg, iv. The data set is classed as ADME, organism-based. More on the design: dose 2 mg/kg, route intravenous. As to conditions: in vivo.
Data set [5] can be described thus: Initial plasma concentration in New Zealand Oryctolagus cuniculus (rabbit) at 2 mg/kg, iv. More on the design: dose 2 mg/kg, route intravenous. The data set is classed as ADME, organism-based.

On to `COc1ccc(S(=O)(=O)N2Cc3[nH]c4ccccc4c3C[C@H]2C(N)=O)cc1` [S007-1558 (S)], for which the Drug recovery with Plasma is given as 40.88%. In data set [1], the distribution volume (Vd) (in general, a proportionality between amount in the body and measured concentration, not a real space) was 29.8 L/kg. Moreover, the half-life (commonly how long it takes for the measured level to halve) in data set [2] was 4.01 h. Besides, in data set [3], the AUC(0-inf) (in general, the area under the concentration-time curve extrapolated to infinity) was found to be 436 ng·h/mL. Moreover, the clearance (as a rule, the volume of plasma or blood freed of the substance per unit of time) in data set [4] is 84.3 mL/min/kg. The molecule also yielded a C0 in data set [5] of 276 ng/mL.
`COc1ccc(S(=O)(=O)N2Cc3[nH]c4ccccc4c3C[C@@H]2C(N)=O)cc1` yielded a Drug recovery in the data set with Plasma of 53.21%. In data set [1], this molecule gave a Vd of 22 L/kg. This molecule also showed a half-life in data set [2] of 3.84 h. This molecule also registered an AUC(0-inf) in data set [3] of 568 ng·h/mL. In addition, the clearance in data set [4] was 64.7 mL/min/kg. In data set [5], this molecule yielded a C0 of 288 ng/mL.

Values taken from ChEMBL document CHEMBL3046553, “Bioanalytical method development and validation for simultaneous estimation of (R)- and (S)-isomers of S002-333: a potent novel anti-thrombotic agent using LCMS/MS” (Med Chem Res, 2011).
